Source: ChEMBL document CHEMBL1201862, “PubChem BioAssay data set” (2004)
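Five concentrations, 48 hours, 96-well plates. GI50 is the concentration that inhibits growth by half.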 Active and inactive are the calls of the source. Cut-off read from the data, not from the text of the source: active = GI50 up to about 1.1 µM and inactive = higher.

What was measured:
Assay in all cases: growth of human tumour cells (NCI), 48 h
HCT-15 = tested on: HCT-15
CAKI-1 = tested on: CAKI-1
A498 = tested on: A498
ACHN = tested on: ACHN
HT-29 = tested on: HT-29
SK-MEL-28 = tested on: SK-MEL-28
SR = tested on: SR
SNB-75 = tested on: SNB-75
NCI-H23 = tested on: NCI-H23
UACC-62 = tested on: UACC-62
OVCAR-4 = tested on: OVCAR-4
SW-620 = tested on: SW-620
UACC-257 = tested on: UACC-257
Malme-3M = tested on: Malme-3M
U-251 = tested on: U-251
SF-295 = tested on: SF-295

| SMILES | GI50 (HCT-15) [µM] | GI50 (CAKI-1) | GI50 (A498) | GI50 (ACHN) | GI50 (HT-29) | GI50 (SK-MEL-28) | GI50 (SR) | GI50 (SNB-75) | GI50 (NCI-H23) | GI50 (UACC-62) | GI50 (OVCAR-4) | GI50 (SW-620) | GI50 (UACC-257) | GI50 (Malme-3M) | GI50 (U-251) | GI50 (SF-295) |
| --- | --- | --- | --- | --- | --- | --- | --- | --- | --- | --- | --- | --- | --- | --- | --- | --- |
| COc1ccc(COC2CC(OC)OC(C)C2OC(=O)c2ccccc2)cc1 (centres undefined) | 17.8 | 36.5 µM (inactive) | 61.5 µM (inactive) | 24.3 µM (inactive) | 16.6 µM (inactive) | 41.2 µM (inactive) | 19 µM (inactive) | 38.3 µM (inactive) | 28.4 µM (inactive) | 32.9 µM (inactive) | 32.8 µM (inactive) | 46.1 µM (inactive) | 40.1 µM (inactive) | 29 µM (inactive) | 35.5 µM (inactive) | 38.5 µM (inactive) |
| c1ccc2c(c1)cc1n2CC2CN=NC12 (centres undefined) | > 100 | > 100 µM (inactive) | > 100 µM (inactive) | > 100 µM (inactive) | > 100 µM (inactive) | > 100 µM (inactive) | > 100 µM (inactive) | 47.8 µM (inactive) | – | > 100 µM (inactive) | > 100 µM (inactive) | > 100 µM (inactive) | > 100 µM (inactive) | > 100 µM (inactive) | > 100 µM (inactive) | > 100 µM (inactive) |
| COc1cccc(C2CC23C(=O)NC(=O)NC3=O)c1 (centres undefined) | > 100 | > 100 µM (inactive) | > 100 µM (inactive) | > 100 µM (inactive) | > 100 µM (inactive) | > 100 µM (inactive) | > 100 µM (inactive) | – | > 100 µM (inactive) | > 100 µM (inactive) | > 100 µM (inactive) | > 100 µM (inactive) | > 100 µM (inactive) | > 100 µM (inactive) | > 100 µM (inactive) | > 100 µM (inactive) |
| Cn1cc(C(=O)c2ccccc2)cc(C(=O)c2ccccc2)c1=O | > 100 | > 100 µM (inactive) | – | > 100 µM (inactive) | > 100 µM (inactive) | > 100 µM (inactive) | > 100 µM (inactive) | > 100 µM (inactive) | > 100 µM (inactive) | > 100 µM (inactive) | > 100 µM (inactive) | > 100 µM (inactive) | > 100 µM (inactive) | > 100 µM (inactive) | > 100 µM (inactive) | > 100 µM (inactive) |
| CC(=O)C1C(=O)C(=O)N(c2ccccc2C(C)C)C1=O (centres undefined) | > 100 | > 100 µM (inactive) | > 100 µM (inactive) | > 100 µM (inactive) | > 100 µM (inactive) | > 100 µM (inactive) | – | > 100 µM (inactive) | > 100 µM (inactive) | > 100 µM (inactive) | > 100 µM (inactive) | > 100 µM (inactive) | > 100 µM (inactive) | > 100 µM (inactive) | > 100 µM (inactive) | > 100 µM (inactive) |
| CCC1CN2CCc3cc(OC)c(OC)cc3C2CC1CC1c2cc(OC)c(OC)cc2CCN1C(=O)CNC(=O)OC(C)(C)C (centres undefined) | 12.3 | 21.7 µM (inactive) | 32.3 µM (inactive) | 21.5 µM (inactive) | 3.49 µM (inactive) | 23.8 µM (inactive) | – | 20.9 µM (inactive) | 21.4 µM (inactive) | 19.7 µM (inactive) | 2.88 µM (inactive) | 4.07 µM (inactive) | 21.4 µM (inactive) | 19.5 µM (inactive) | 5.51 µM (inactive) | 3.9 µM (inactive) |
| Nc1ncn([C@@H]2C=C(CO)C(O)C2O)c(=O)n1 (some centres undefined) | 60.3 | 98.4 µM (inactive) | > 100 µM (inactive) | 51.4 µM (inactive) | 57.4 µM (inactive) | > 100 µM (inactive) | – | – | > 100 µM (inactive) | 83.9 µM (inactive) | > 100 µM (inactive) | 69.8 µM (inactive) | > 100 µM (inactive) | > 100 µM (inactive) | > 100 µM (inactive) | > 100 µM (inactive) |
| CCOC(=O)C1=C(OC(OCC)C([Se]c2ccccc2)C(C)C)CCC1 (centres undefined) | 15.2 | 43.5 µM (inactive) | 26.5 µM (inactive) | 23.4 µM (inactive) | 19.1 µM (inactive) | 16.4 µM (inactive) | 3.2 µM (inactive) | 23 µM (inactive) | 8.28 µM (inactive) | 14.2 µM (inactive) | 16.1 µM (inactive) | – | 23.2 µM (inactive) | 26.4 µM (inactive) | 4.29 µM (inactive) | 13.4 µM (inactive) |
| CC1C[C@]2(C[C@@H](C)C(=O)O2)O[C@@H]2CC3(C)[C@@H]4CCC5C(C)(C)OC(=O)C[C@H]6OO[C@]4(CC[C@]3(C)C12)CC56O (some centres undefined) | > 100 | – | – | > 100 µM (inactive) | > 100 µM (inactive) | > 100 µM (inactive) | > 100 µM (inactive) | > 100 µM (inactive) | > 100 µM (inactive) | > 100 µM (inactive) | > 100 µM (inactive) | > 100 µM (inactive) | > 100 µM (inactive) | > 100 µM (inactive) | > 100 µM (inactive) | > 100 µM (inactive) |
| O=S(=O)(C/C(=N\O)c1ccccc1)c1ccccc1 | > 100 | > 100 µM (inactive) | > 100 µM (inactive) | > 100 µM (inactive) | > 100 µM (inactive) | > 100 µM (inactive) | – | > 100 µM (inactive) | > 100 µM (inactive) | > 100 µM (inactive) | > 100 µM (inactive) | > 100 µM (inactive) | > 100 µM (inactive) | > 100 µM (inactive) | > 100 µM (inactive) | > 100 µM (inactive) |
